Test results reported in patent publication US20260159520A1, “HETEROBIFUNCTIONAL COMPOUNDS AND METHODS OF TREATING DISEASE” (Halda Therapeutics OpCo, Inc., priority 2022, published 2026).

Tests used:
Format in all cases: cell-based
VCaP cells = experiment: Cellular growth inhibition assay for VCaP cells; conditions: Homo sapiens, 72 hours, CellTiter-Glo 2.0
[1] = system: T-Rex 293 cell line SC cells lacking increased expression of progesterone receptor isoform B protein; experiment: Cellular growth inhibition, T-Rex 293 SC cells without doxycycline; conditions: not exposed to doxycycline, 72 hours, CellTiter-Glo 2.0
Protocol: (§1) The following types of cells were prepared for this experiment: (i) a T-Rex 293 cell line having increased expression of progesterone receptor isoform B protein due to exposure to doxycycline and (ii) a T-Rex 293 cell line lacking increased expression of progesterone receptor isoform B protein. Ability of the test compounds to inhibit proliferation of the foregoing cell types was evaluated according to the procedures set forth below.
(§2) The doxycycline-inducible progesterone receptor isoform B protein expressing cell line was established using the following protocol: T-Rex 293 cells were purchased from Invitrogen (Cat #R71007) and transfected using Lipofectamine 2000 with the wild-type progesterone receptor B protein sequence cloned into the pcDNA4/TO vector. Transfected cells were selected using 400 μg/mL Zeocin (Invitrogen Cat #R25001). Following selection, single clones were raised and maintained in Dulbecco's Modified Eagle Medium (DMEM) supplemented with 10% w/w Tetracycline-free fetal bovine serum (FBS) and 250 μg/mL Zeocin. Clones were analyzed for expression of progesterone receptor isoform B protein in the presence and absence of 10 ng/mL doxycycline (Sigma Cat #D9891), and a single doxycycline-inducible clone (hereinafter “SC”) was selected for use in downstream assays.
(§3) The SC cells were seeded on poly-D-lysine coated, black clear-bottom 384-well plates at 2500/well, in 25 μL Phenol Red Free Dulbecco's Modified Eagle Medium (DMEM) supplemented with 10% w/w charcoal-dextran treated fetal bovine serum (FBS) and 1% w/w pen-strep, with or without 10 ng/mL doxycycline. Pen-Strep is a commercially available mixture of penicillin G and streptomycin, which is used in mammalian cell culture media to prevent bacterial contamination. Phenol Red Free Dulbecco's Modified Eagle Medium (DMEM) supplemented with 10% w/w charcoal-dextran treated fetal bovine serum (FBS) and 1% w/w pen-strep, with or without 10 ng/mL doxycycline is herein referred to as Treatment Medium. Following seeding of cells in the plates, the plates were spun at 300×g for 30 seconds, then equilibrated to room temperature for 30 minutes, and then deposited in a humidified tissue culture incubator maintained at 37° C. with 5% CO2.
(§4) At 24 hours after seeding of the cells, dilutions of test compound were prepared in DMSO and dissolved in Treatment Medium, to achieve a final DMSO concentration of 0.5% w/w, thereby providing the Test Compound Solution. A 25 μL aliquot of the Test Compound Solution was added to cells in the well plates. An equal volume of a solution containing DMSO and Treatment Medium was used as a negative control. Following treatment of cells with Test Compound Solution or said equal volume of a solution containing DMSO and Treatment Medium, the plates were spun at 300×g for 30 seconds, and then left in an incubator for 72 hours.
(§5) At the end of the treatment duration, cell viability was quantified with CellTiter-Glo 2.0 reagent (Promega Cat #G9243). For this purpose, plates were equilibrated to room temperature for 30 minutes, and then 25 μL of CellTiter-Glo 2.0 reagent was added to cells in the plate wells. Plates were then agitated on a shaker for two minutes at 500 rpm and subsequently incubated at room temperature for 10 minutes. Following incubation, the plates were spun at 3000×g for 30 seconds, then sealed with an optical adhesive cover, and luminescence readings were measured with an EnVision Plate Reader (Perkin Elmer).
(§6) Data was normalized using zero luminescence for baseline. A four-parameter non-linear regression curve fit was applied to dose-response data in GraphPad Prism data analysis software to determine the half-maximal growth inhibitory concentration (GI50) for each test compound.

[2] = system: T-Rex 293 cell line SC3 cells having increased expression of androgen receptor protein; experiment: Cellular growth inhibition, T-Rex 293 SC3 cells with doxycycline (increased androgen receptor expression); conditions: with 10 ng/mL doxycycline (increased androgen receptor), 72 hours, CellTiter-Glo 2.0
In short: (§7)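 Doxycycline (10 ng/mL) was either included or omitted to toggle wild-type androgen receptor expression in SC3 cells, a T-Rex 293 clone, grown in stripped-serum, phenol red-free medium. After 72 hours with compound, viable cells were quantified by CellTiter-Glo 2.0.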

[3] = system: T-Rex 293 cell line SC cells having increased expression of progesterone receptor isoform B protein; experiment: Cellular growth inhibition, T-Rex 293 SC cells with doxycycline (increased progesterone receptor isoform B expression); conditions: with 10 ng/mL doxycycline (increased progesterone receptor isoform B), 72 hours, CellTiter-Glo 2.0
Protocol: as §1, §2, §3, §4, §5, §6

[4] = system: T-Rex 293 cell line SC3 cells lacking increased expression of androgen receptor protein; experiment: Cellular growth inhibition, T-Rex 293 SC3 cells without doxycycline; conditions: not exposed to doxycycline, 72 hours, CellTiter-Glo 2.0
In short: as §7

T47D cells = experiment: Cellular growth inhibition assay for T47D cells; conditions: Homo sapiens, 72 hours, CellTiter-Glo 2.0
In short: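 Luminescence from CellTiter-Glo 2.0 after 72 h of compound exposure gives the viability signal. Cells grew in insulin-supplemented (0.2 units/mL) DMEM with 10% FBS and were treated one day after seeding at 0.5% DMSO. GI50 values come from four-parameter nonlinear regression.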

## CCc1cnn2c(NCc3ccc(OCCOCCOCCOCCOCCOCCOCCOC4CCN(c5ncc(C(=O)N[C@H]6C(C)(C)[C@H](Oc7ccc(C#N)c(Cl)c7)C6(C)C)cn5)CC4)nc3)cc(N3CCCC[C@H]3CCO)nc12 [Compound I-10]
VCaP cells
  GI50: < 100 nM
[1]
  GI50: < 500 nM
[2]
  GI50: < 100 nM
[3]
  GI50: < 500 nM
[4]
  GI50: 100 to 1000 nM

## CC1(C)[C@H](NC(=O)c2cnc(N3CCC(OCCOCCOCCNS(=O)(=O)c4ccc(Nc5ncc(Br)c(Nc6cccc(F)c6C(N)=O)n5)cc4)CC3)nc2)C(C)(C)[C@H]1Oc1ccc(C#N)c(Cl)c1 [Compound I-14]
[1]
  GI50: > 3000 nM
T47D cells
  GI50: 500 to 1500 nM
[2]
  GI50: > 3500 nM
[3]
  GI50: > 3000 nM
[4]
  GI50: > 3500 nM

## CCc1cnn2c(NCc3ccc(OCCCCOC4CCN(c5ncc(C(=O)N[C@H]6C(C)(C)[C@H](Oc7ccc(C#N)c(Cl)c7)C6(C)C)cn5)CC4)nc3)cc(N3CCCC[C@H]3CCO)nc12 [Compound I-27]
[1]
  GI50: > 3000 nM
[2]
  GI50: 100 to 1000 nM
[3]
  GI50: < 500 nM
[4]
  GI50: > 3500 nM
